Consider 23 compounds from patent US20260248763A1 (BIO GENUINE (SHANGHAI) BIOTECH CO., LTD, priority 2023, published 2026).

Structures are written as SMILES. pIC50: −log10 of the molar value.

In the assay the target is T1, OTR (Homo sapiens, UniProt P30559).
T1 construct: expressed in transfected cells; host or cells: OTR/HEK293 stably transfected cell line
T1 sequence (P30559 1-389): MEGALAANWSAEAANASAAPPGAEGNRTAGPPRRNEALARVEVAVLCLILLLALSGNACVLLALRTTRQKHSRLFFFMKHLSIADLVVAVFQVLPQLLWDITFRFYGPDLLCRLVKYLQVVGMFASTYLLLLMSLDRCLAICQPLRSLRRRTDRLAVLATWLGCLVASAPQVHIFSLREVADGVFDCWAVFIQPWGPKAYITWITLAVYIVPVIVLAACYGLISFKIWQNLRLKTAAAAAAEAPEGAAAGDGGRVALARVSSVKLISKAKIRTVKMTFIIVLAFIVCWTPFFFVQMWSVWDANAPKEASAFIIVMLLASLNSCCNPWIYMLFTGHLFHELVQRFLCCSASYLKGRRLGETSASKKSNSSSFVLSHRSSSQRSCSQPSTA
Kind of assay: Ca2+ mobilization in cells stably expressing OTR (FLIPR, antagonist mode). The settings on record: OTR/HEK293 stably transfected cell line. It counts as cell-based. An excerpt:
Test Example 1. Determination of the Effect of the Compound of the Present Disclosure on Ca^2+ Mobilization in Cells Stably Expressing OTR
To measure the antagonistic effect of the compound of the present disclosure on OTR activity expressed in the OTR/HEK293 stably transfected cell line.
• DMEM medium (Invitrogen, 11965) • F12 medium (Invitrogen, 11765) • Fetal bovine serum (Excell, FSP500) • Geneticin (Invitrogen, 10131) • Penicillin/Streptomycin (Invitrogen, SV30010) • Fluo-4 Direct kit (Invitrogen, F10471) • 384-well cell plate (Greiner, 781090) • 384-well compound plate (Greiner, 781280)
• FLIPR instrument (Molecular Device) • EHCO instrument (Labcyte) • Cell counter (Beckman, Vi-cell XR)
The cultured cells were washed twice with pre-heated DPBS and digested with appropriate amount of trypsin at 37° C. for 1 minute, and then appropriate amount of culture medium was added to terminate digestion. The cells were centrifuged at 1000 rpm for 5 minutes. The supernatant was gently discarded without disturbing the cell pellet at the bottom. The cells were resuspended in culture medium and 1 mL was taken out for cell counting and viability assessment using Vi-CELL™. The cells were diluted to 1×10^6 cells/mL (20,000 cells/20 μL) with culture medium, seeded into a 384-well cell plate and incubated at 37° C. with 5% CO2 for 16-20 h.
Formulation of 250 mM Probenecid solution: according to the kit instructions, 1 mL of FLIPR buffer salt solution was added to 77 mg of probenecid, prepared fresh just before use. Formulation of Fluo-4 Direct™ (2×, 8 μM) loading buffer: according to the kit instructions, the required amount of Fluo-4 Direct™ was taken out and thawed in advance, 10 mL of FLIPR buffer salt solution and 0.2 mL of 250 mM Probenecid solution were added to each tube, and the mixture was vortexed in the dark for >5 minutes, prepared fresh just before use.
Preparation of agonist reference compound plate: the agonist was diluted 3-fold in 10 points using ECHO, and 750 nL was transferred to the corresponding compound plate using ECHO.
Preparation of reference and test compound plates: the test compound was diluted 3-fold in 10 points with ECHO, and 900 nL was transferred to the corresponding compound plate; the reference compound was diluted 3-fold in 10 points with assay buffer salt solution, and 30 μL was transferred to the compound plate.
30 μL of assay buffer salt solution was added to the corresponding compound plate, and the mixture was centrifuged at 1000 rpm for 1 minute.
The cell plate prepared the day before was taken out of the incubator, and 20 μL of 2×Fluo-4 Direct™ buffer was added to each well, with a total volume of 40 μL.
The plate was incubated in an incubator at 37° C. with 5% CO2 for 50 minutes, and then placed at room temperature for 10 minutes.
The compound plate, cell plate, and pipette tips were placed into the instrument.
For the agonist reference compound plate: the FLIPR instrument software was run, 10 μL of the pre-determined concentration of agonist reference compound was added to the cell plate following the preset protocol, and the fluorescence signal was read. After reading, the data were exported to calculate the EC80 for each cell line, and the agonist at 6×EC80 concentration was prepared.
For the compound plate: the FLIPR instrument software was run, 10 μL of the pre-determined concentration of test compound and the reference compound were added to the cell plate following the preset protocol, and the fluorescence signal was read. 10 μL of the reference compound agonist at 6×EC80 concentration was added to the cell plate, and the fluorescence signal was read. For antagonist detection of the compound, the data were exported using the “Max-Min” and “Read 1 to Maximum allowed” methods in the software, and the data were fitted using Prism.
Usually pIC50 stands for the negative decadic logarithm of the IC50, by convention in mol/L. Read a low pIC50 as a high IC50. Compound `CO/N=C1\C[C@@H](CO)N(C(=O)c2ccc(-c3cccc(C)c3C#N)cc2)C1` [Example A0144, (S, E)-4′-(2-(Hydroxymethyl)-4-(methoxyimino)pyrrolidine-1-carbonyl)-3-methyl-[1,1′-biphenyl]-2-carbonitrile] had a negative logarithm of the IC50 (pIC50) of 5.95.
On to `CO/N=C1/C[C@@H](CO)N(C(=O)c2cnc(-c3cccc(C)c3C)c(C(F)(F)F)n2)C1` [Example A0137], for which the pIC50 is 6.82.
`CO/N=C1\C[C@@H](CO)N(C(=O)c2ccc(-c3cccc(C#N)c3C)c(OC)c2)C1` [Example A0248, (S,E)-4′-(2-(Hydroxymethyl)-4-(methoxyimino)pyrrolidine-1-carbonyl)-2′-methoxy-2-methyl-[1,1′-biphenyl]-3-carbonitrile] had a negative logarithm of the IC50 (pIC50) of 7.24.
For `CO/N=C1/C[C@@H](CO)N(C(=O)c2cnc(-c3ccccc3C)cn2)C1` [Example C0013, (S, Z)-(2-(Hydroxymethyl)-4-(methoxyimino)pyrrolidin-1-yl)(5-(o-tolyl)pyrazin-2-yl)methanone] the value was 6.07; for `CO/N=C1/C[C@@H](CO)N(C(=O)c2ccc(-c3cccc(C#N)c3C(F)F)cc2)C1` [Example A0204, 2-(Difluoromethyl)-3-(4-[(2S, 4Z)-2-(hydroxymethyl)-4-(methoxyimino)pyrrolidine-1-carbonyl]phenyl)benzonitrile], 6.81.
Under `CO/N=C1/C[C@@H](CO)N(C(=O)c2cc(C(F)(F)F)c(-c3cccc(C)c3C)cn2)C1` [Example C0071, (S, Z)-(5-(2,3-Dimethylphenyl)-4-(trifluoromethyl)pyridin-2-yl)(2-(hydroxymethyl)-4-(methoxyimino)pyrrolidin-1-yl)methanone] stands 6.63.
Take `CON=C1C[C@@H](CO)N(C(=O)c2ncc(-c3cccc(C)c3C)nn2)C1` (single isomer, unassigned) [Example C0109]: the pIC50 is 6.44.
`CO/N=C1/C[C@@H](CNC(=O)OC)N(C(=O)c2ccc(-c3ccccc3C)cc2)C1` [Example C0007, Methyl (S, Z)-((4-(methoxyimino)-1-(2′-methyl-[1,1′-biphenyl]-4-carbonyl)pyrrolidin-2-yl)methyl)carbamate] had a negative logarithm of the IC50 (pIC50) of 6.27.
On to `CNC(=O)[C@@H]1C/C(=N/OC)CN1C(=O)c1ccc(-c2cccc(C#N)c2C)cc1` [Example A0228, (S, Z)-1-(3′-Cyano-2′-methyl-[1,1′-biphenyl]-4-carbonyl)-4-(methoxyimino)-N-methylpyrrolidine-2-carboxamide], for which the pIC50 was 6.36.
Under `CO/N=C1/C[C@@H](CO)N(C(=O)c2ccc(-c3cccc(C)c3C)c(C(=O)N3CCOCC3)c2)C1` [Example A0158, (25, 4Z)-(2′, 3′-Dimethyl-2-(morpholine-4-carbonyl)-[1, 1′-biphenyl]-4-yl)(2-(hydroxymethyl)-4-(methoxyimino)pyrrolidin-1-yl)methanone] stands 5.82.
As for `CO/N=C1\C[C@@H](CO)N(C(=O)c2ccc(-c3cccc(C)c3C)c(C(=O)NC3COC3)c2)C1` [Example A0179, (S, E)-4-(2-(Hydroxymethyl)-4-(methoxyimino)pyrrolidine-1-carbonyl)-2′, 3′-dimethyl-N-(oxetan-3-yl)-[1,1′-biphenyl]-2-carboxamide], the pIC50 was 6.78.
Regarding `CO/N=C1\C[C@@H](COCCO)N(C(=O)c2ccc(-c3ccccc3C)cc2)C1` [Example C0018, (S, E)-(2-((2-Hydroxyethoxy)methyl)-4-(methoxyimino)pyrrolidin-1-yl)(2′-methyl-[1,1′-biphenyl]-4-yl)methanone], the negative logarithm of the IC50 (pIC50) is 6.26.
Under `CO/N=C1/CC2(CO)CCC1N2C(=O)c1ccc(-c2ccccc2C)cc1` (single isomer, unassigned) [Example A0087] stands 5.97; under `CO/N=C1/C[C@@H](CO)N(C(=O)c2ccc(-c3cccc(C#N)c3C(F)(F)F)cc2)C1` [Example C0127, (S, Z)-4′-(2-(Hydroxymethyl)-4-(methoxyimino)pyrrolidine-1-carbonyl)-2-(trifluoromethyl)-[1,1′-biphenyl]-3-carbonitrile], 6.99; under `CO/N=C1/C[C@@H](CO)N(C(=O)c2ccc(-c3cccc(C)c3C)cc2C#N)C1` [Example A0131, 5-(2,3-Dimethylphenyl)-2-[(2S, 4Z)-2-(hydroxymethyl)-4-(methoxyimino)pyrrolidine-1-carbonyl]benzonitrile], 6.76.
For `CO/N=C1/C[C@@H](CO)N(C(=O)c2ccc(-c3cccc(C)c3C)c(=O)n2C)C1` [Example C0103, (S,Z)-3-(2,3-Dimethylphenyl)-6-(2-(hydroxymethyl)-4-(methoxyimino)pyrrolidine-1-carbonyl)-1-methylpyridin-2(1H)-one] the value was 5.83; for `CO/N=C1/C[C@@H](CO)N(C(=O)c2ccc(-c3cccc(C#N)c3C)s2)C1` [Example A0212, 3-(5-[(2S, 4Z)-2-(Hydroxymethyl)-4-(methoxyimino)pyrrolidine-1-carbonyl]thien-2-yl)-2-methylbenzonitrile], 6.42; for `CO/N=C1\C[C@@H](CO)N(C(=O)c2ccc(-c3cccc(C#N)c3C)cc2C)C1` [Example A0244, 3-(4-[(2S,4E)-2-(Hydroxymethyl)-4-(methoxyimino)pyrrolidine-1-carbonyl]-3-methylphenyl)-2-methylbenzonitrile], 7.37.
Under `CO/N=C1/C[C@@H](CO)N(C(=O)c2ccc(-c3cccc(C)c3C)c(C(F)(F)F)n2)C1` [Example C0085, (S, Z)-(5-(2,3-Dimethylphenyl)-6-(trifluoromethyl)pyridin-2-yl)(2-(hydroxymethyl)-4-(methoxyimino)pyrrolidin-1-yl)methanone] stands 6.79; under `CO/N=C1/C[C@@H](CO)N(C(=O)c2ccc(-c3cccc(C(F)F)c3C)c3c2OCCO3)C1` [Example C0137, (S,Z)-(8-(3-(Difluoromethyl)-2-methylphenyl)-2,3-dihydrobenzo[b][1,4]dioxin-5-yl)(2-(hydroxymethyl)-4-(methoxyimino)pyrrolidin-1-yl)methanone], 8.13; under `CO/N=C1/CC[C@@H](CO)N(C(=O)c2ccc(-c3cccc(C#N)c3C)cc2)C1` [Example A0225, (S, Z)-4′-(2-(Hydroxymethyl)-5-(methoxyimino)piperidine-1-carbonyl)-2-methyl-[1,1′-biphenyl]-3-carbonitrile], 6.32.
In turn, `COCCOc1cc(C(=O)N2C/C(=N\OC)C[C@H]2CO)ccc1-c1cccc(C)c1C` [Example A0149, (S, Z)-(2-(Hydroxymethyl)-4-(methoxyimino)pyrrolidin-1-yl)(2-(2-methoxyethoxy)-2′, 3′-dimethyl-[1,1′-biphenyl]-4-yl)methanone] showed a pIC50 of 7.77.
The compound `CO/N=C1\CCN(C(=O)c2ccc(-c3cccc(C#N)c3C)cc2)[C@H](CO)C1` [Example A0226, (S,E)-4′-(2-(Hydroxymethyl)-4-(methoxyimino)piperidine-1-carbonyl)-2-methyl-[1,1′-biphenyl]-3-carbonitrile] showed a negative-log IC50 (pIC50) of 5.98.
